We go through eight compounds from patent publication US20080242681A1, “N-4-(6-(Hetero)Aryl-Pyrimidin-4-Ylaminophenyl)-Benzenesulfonamides as Kinase Inhibitors” (Altana Pharma AG, priority 2004, published 2008).

Structures can show the parent of a compound that is named as a salt.

Type in all cases: biochemical
One assay deals with T1, PKA (Homo sapiens, UniProt P17612).
T1 construct: purchased Panvera
The assay can be described thus: Protein Kinase A assay (SPA). The following applies: human recombinant PKA, read-out: IC50, inhibition of PKA. As to the method: (§1) The compounds of formula 1 are tested for their activity on different protein kinases and PKC isoforms using a scintillation proximity assay (SPA, Amersham International plc). ^33P-labeled peptides are captured onto streptavidin coated yttrium silicate SPA beads. β-particles, emitted from the captured ^33P-labeled substrate in close proximity to the bead are able to excite the scintillant, resulting in the generation of quantifiable light. The assay is performed in a 96-well polystyrene microtiterplate (1450-514, Isoplates, Wallac, Turku, Finland). The reaction mixture (50 μl) contains 10 μl of the test compound together with 10 μl of the relevant kinase, diluted in the relevant dilution buffer, 5 μl of 10 μM phorbol myristate acetate (PMA) in H2O, 5 μl of 1.6 mM phosphatidylserine (Sigma-Aldrich Chemie GmbH, Stein-heim, Germany) in 20 mM Tris/HCL buffer pH 7.4, 5 μl of 0.3% BSA in H2O, 5 μl of 30 μM relevant substrate and 10 μl of 5 μM ATP and 0.1 μCi of ^33P-ATP (Amersham, Freiburg, Germany) in 200 mM Tris/HCL pH 7.5 and 200 mM MgCl2. Incubation is performed for 40 min at room temperature (RT) without shaking. Reaction is stopped by adding 150 μl of cold stop solution containing 10 mM ATP, 5 mM EGTA pH 7.5, 0.1% Triton X-100 and 0.2 mg streptavidin coated yttrium silicate SPA beads (Amersham, RPNQ 0012). The sealed plate is incubated for 60 min at RT. Thereafter the MTP is counted in a Microbeta Jet (Wallac). IC50 measurement is performed on a routine basis by incubation a serial dilution of inhibitor at concentrations ranging between 0.01 and 100 μM according to the method described above. Background values are the signals of the reaction mixture without addition of the relevant kinase and are subtracted from all values. 100% values are the signals of the reaction mixture without addition of inhibitors.
Human recombinant PKA was obtained from Panvera and is used in a scintillation proximity assay described in Section A.1. […] Thereafter the MTP is counted in a Microbeta Jet (Wallac). […] IC50 values are calculated from the graph by sigmoidal curve fitting.

In the next assay the target is T2, PKCε (Homo sapiens, UniProt Q02156).
T2 construct: purchased Panvera
T2 sequence (Q02156 1-737): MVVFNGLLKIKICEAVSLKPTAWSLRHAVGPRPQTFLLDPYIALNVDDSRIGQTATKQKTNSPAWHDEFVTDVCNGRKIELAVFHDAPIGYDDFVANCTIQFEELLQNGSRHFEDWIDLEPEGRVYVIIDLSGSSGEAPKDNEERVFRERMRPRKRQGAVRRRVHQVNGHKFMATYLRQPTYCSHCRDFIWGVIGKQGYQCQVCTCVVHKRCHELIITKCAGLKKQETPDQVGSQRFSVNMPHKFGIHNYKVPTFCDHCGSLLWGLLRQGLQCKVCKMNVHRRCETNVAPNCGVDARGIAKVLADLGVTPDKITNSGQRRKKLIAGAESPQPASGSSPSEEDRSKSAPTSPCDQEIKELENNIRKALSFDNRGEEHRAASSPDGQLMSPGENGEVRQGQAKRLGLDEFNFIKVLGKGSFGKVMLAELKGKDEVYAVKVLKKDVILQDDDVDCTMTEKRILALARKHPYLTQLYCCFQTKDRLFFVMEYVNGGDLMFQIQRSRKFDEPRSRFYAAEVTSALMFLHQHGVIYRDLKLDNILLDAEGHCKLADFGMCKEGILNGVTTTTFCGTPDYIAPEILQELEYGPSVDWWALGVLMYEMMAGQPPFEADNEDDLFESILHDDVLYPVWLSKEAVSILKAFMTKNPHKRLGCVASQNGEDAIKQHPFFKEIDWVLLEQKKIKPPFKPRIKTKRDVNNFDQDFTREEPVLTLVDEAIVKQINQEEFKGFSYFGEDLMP
The assay can be described thus: Protein Kinase C ε assay (SPA). Particulars: human recombinant PKCε, PKCη pseudosubstrate, read-out: IC50, inhibition of PKC ε. As to the method:
as §1
Dependent on the efficacy of the inhibitors In the various test systems, corresponding IC50 values are calculated from concentration-inhibition curves by nonlinear regression analysis using the program GraphPad Prism (GraphPad Software Inc., San Diego, Calif.).
Human recombinant PKCε was obtained from Panvera and is used under the assay conditions as described above (Section A.1). The enzyme is diluted in PKC dilution buffer containing 1 mM Hepes pH 7.4, 0.5 mM DTT and 0.001% Triton X-100. The kinase reaction is performed with the biotinylated PKCη pseudosubstrate solved in H2O.

The next assay addresses T3, PKCζ (Homo sapiens, UniProt Q05513).
T3 construct: purchased Panvera
T3 sequence (Q05513 1-592): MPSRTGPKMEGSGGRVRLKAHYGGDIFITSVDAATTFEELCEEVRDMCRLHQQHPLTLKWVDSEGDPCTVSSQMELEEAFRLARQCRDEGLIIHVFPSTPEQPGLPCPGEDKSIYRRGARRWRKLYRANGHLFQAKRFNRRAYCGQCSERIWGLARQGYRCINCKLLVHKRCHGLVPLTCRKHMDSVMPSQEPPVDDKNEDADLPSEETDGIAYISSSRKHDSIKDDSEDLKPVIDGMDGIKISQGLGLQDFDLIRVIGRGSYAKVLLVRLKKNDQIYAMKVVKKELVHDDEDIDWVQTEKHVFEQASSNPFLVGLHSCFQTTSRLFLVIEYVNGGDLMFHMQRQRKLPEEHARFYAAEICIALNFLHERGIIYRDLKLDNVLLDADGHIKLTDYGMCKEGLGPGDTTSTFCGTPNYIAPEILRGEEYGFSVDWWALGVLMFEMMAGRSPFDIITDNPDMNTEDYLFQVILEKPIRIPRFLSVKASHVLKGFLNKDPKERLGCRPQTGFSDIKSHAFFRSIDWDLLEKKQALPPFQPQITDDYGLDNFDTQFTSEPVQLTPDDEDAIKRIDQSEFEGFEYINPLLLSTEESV
The assay can be described thus: Protein Kinase C ζ assay (SPA). The following applies: human recombinant PKCζ, absence of PMA and phosphatidylserine, read-out: IC50, inhibition of PKC ζ. The protocol: The compounds of formula 1 are tested for their activity on different protein kinases and PKC isoforms using a scintillation proximity assay (SPA, Amersham International plc). ^33P-labeled peptides are captured onto streptavidin coated yttrium silicate SPA beads. β-particles, emitted from the captured ^33P-labeled substrate in close proximity to the bead are able to excite the scintillant, resulting in the generation of quantifiable light. The assay is performed in a 96-well polystyrene microtiterplate (1450-514, Isoplates, Wallac, Turku, Finland). The reaction mixture (50 μl) contains 10 μl of the test compound together with 10 μl of the relevant kinase, diluted in the relevant dilution buffer, 5 μl of 10 μM phorbol myristate acetate (PMA) in H2O, 5 μl of 1.6 mM phosphatidylserine (Sigma-Aldrich Chemie GmbH, Stein-heim, Germany) in 20 mM Tris/HCL buffer pH 7.4, 5 μl of 0.3% BSA in H2O, 5 μl of 30 μM relevant substrate and 10 μl of 5 μM ATP and 0.1 μCi of ^33P-ATP (Amersham, Freiburg, Germany) in 200 mM Tris/HCL pH 7.5 and 200 mM MgCl2. […] Thereafter the MTP is counted in a Microbeta Jet (Wallac). […]
(§2) Dependent on the efficacy of the inhibitors In the various test systems, corresponding IC50 values are calculated from concentration-inhibition curves by nonlinear regression analysis using the program GraphPad Prism (GraphPad Software Inc., San Diego, Calif.). […]

The target of the next assay is T4, PKCι (Homo sapiens, UniProt P41743).
T4 construct: made in house; host or cells: Sf21 insect cells
T4 sequence (P41743 1-596): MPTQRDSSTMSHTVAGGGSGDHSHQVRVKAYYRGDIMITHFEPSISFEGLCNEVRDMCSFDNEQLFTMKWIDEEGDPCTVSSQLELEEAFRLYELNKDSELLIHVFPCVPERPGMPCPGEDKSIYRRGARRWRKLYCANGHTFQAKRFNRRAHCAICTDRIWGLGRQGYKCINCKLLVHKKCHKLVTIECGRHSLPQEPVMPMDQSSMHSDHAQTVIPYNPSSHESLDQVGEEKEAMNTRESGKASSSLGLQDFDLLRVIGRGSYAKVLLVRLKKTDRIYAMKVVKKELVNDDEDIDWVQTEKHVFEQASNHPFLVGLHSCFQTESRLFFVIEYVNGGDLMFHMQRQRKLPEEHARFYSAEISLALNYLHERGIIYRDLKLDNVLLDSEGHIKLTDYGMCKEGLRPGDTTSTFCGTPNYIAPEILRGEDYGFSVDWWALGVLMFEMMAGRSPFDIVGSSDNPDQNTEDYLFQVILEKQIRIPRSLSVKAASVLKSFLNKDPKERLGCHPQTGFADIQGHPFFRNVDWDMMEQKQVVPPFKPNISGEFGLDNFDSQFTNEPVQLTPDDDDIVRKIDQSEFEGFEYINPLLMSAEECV
Put plainly: Protein Kinase C ι assay (SPA). The following applies: human recombinant PKCι from Sf21 insect cells, absence of PMA and phosphatidylserine, read-out: IC50, inhibition of PKC ι. As to the method: as §1, §2

Another assay deals with T5, PKCδ (Homo sapiens, UniProt Q05655).
T5 construct: purchased Panvera
T5 sequence (Q05655 whole entry): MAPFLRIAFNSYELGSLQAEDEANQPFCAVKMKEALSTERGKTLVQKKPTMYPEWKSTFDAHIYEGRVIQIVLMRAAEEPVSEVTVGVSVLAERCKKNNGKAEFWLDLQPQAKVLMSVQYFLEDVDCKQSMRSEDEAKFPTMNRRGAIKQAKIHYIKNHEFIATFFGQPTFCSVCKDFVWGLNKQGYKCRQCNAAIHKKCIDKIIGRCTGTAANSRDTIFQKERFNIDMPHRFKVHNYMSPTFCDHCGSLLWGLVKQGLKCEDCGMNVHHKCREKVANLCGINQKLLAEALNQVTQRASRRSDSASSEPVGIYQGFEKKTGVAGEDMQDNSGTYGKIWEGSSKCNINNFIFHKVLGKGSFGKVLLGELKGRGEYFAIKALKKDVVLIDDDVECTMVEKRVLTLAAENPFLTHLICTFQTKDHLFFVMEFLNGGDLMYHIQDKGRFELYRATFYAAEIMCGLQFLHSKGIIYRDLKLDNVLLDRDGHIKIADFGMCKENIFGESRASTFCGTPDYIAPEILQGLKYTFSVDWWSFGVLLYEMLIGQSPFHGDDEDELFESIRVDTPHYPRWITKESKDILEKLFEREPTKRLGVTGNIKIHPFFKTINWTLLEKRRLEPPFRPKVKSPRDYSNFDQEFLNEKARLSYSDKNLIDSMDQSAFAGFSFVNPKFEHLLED
The assay can be described thus: Protein Kinase C δ assay (SPA). The following applies: human recombinant PKCδ, PKCη pseudosubstrate, read-out: IC50, inhibition of PKC δ. The protocol:
as §1, §2

Regarding `O=S(=O)(Nc1ccc(Nc2cc(-c3cccc4ccccc34)ncn2)cc1)c1ccc(Cl)c(Cl)c1` [Example 10, 3,4-Dichloro-N-[4-(6-naphthalen-1-yl-pyrimidin-4-ylamino)-phenyl]-benzenesulfonamide], the IC50 at PKA is 3 to 16 µM. On to `Cc1csc(-c2cc(Nc3ccc(NS(=O)(=O)c4c(F)cccc4F)cc3)ncn2)c1` [Example 117, 2,6-Difluoro-N-{4-[6-(4-methyl-thiophen-2-yl)-pyrimidin-4-ylamino]-phenyl}-benzenesulfonamide], for which the IC50 fell in the range of 3 to 16 µM on PKA and 4 to 21 µM at PKCε.

On to `O=S(=O)(Nc1ccc(Nc2cc(-c3ccc4[nH]ccc4c3)ncn2)cc1)c1cccc(F)c1` [Example 121, 3-Fluoro-N-{4-[6-(1H-indol-5-yl)-pyrimidin-4-ylamino]-phenyl}-benzenesulfonamide], for which the IC50 at PKA was 3 to 16 µM. Consider `O=S(=O)(Nc1ccc(Nc2cc(-c3ccc4c(ccn4CCCN4CCCC4)c3)ncn2)cc1)c1c(F)cccc1F` [Example 143, 2,6-Difluoro-N-(4-{6-[1-(3-pyrrolidin-1-yl-propyl)-1H-indol-5-yl]-pyrimidin-4-ylamino}-phenyl)-benzenesulfonamide formic acid salt], for which the IC50 at PKCζ lay within 15 to 25 µM.

As to `COc1ccc(S(=O)(=O)Nc2ccc(Nc3cc(-c4ccc5c(ccn5CCCN5CCCC5)c4)ncn3)cc2)cc1` [Example 145, 4-Methoxy-N-(4-{6-[1-(3-pyrrolidin-1-yl-propyl)-1H-indol-5-yl]-pyrimidin-4-ylamino}-phenyl)-benzenesulfonamide formic acid salt], on PKCι, the IC50 lay in the range of 7 to 34 µM.

`CN1CCN(CCCn2ccc3cc(-c4cc(Nc5ccc(NS(=O)(=O)c6ccc(F)c(Cl)c6)cc5)ncn4)ccc32)CC1` [Example 162, 3-Chloro-4-fluoro-N-[4-(6-{1-[3-(4-methyl-piperazin-1-yl)-propyl]-1H-indol-5-yl}-pyrimidin-4-ylamino)-phenyl]-benzenesulfonamide formic acid salt]: the 50% inhibitory concentration (IC50) at PKCι was in the range of 7 to 34 µM. Regarding `CCN(CC)CCCn1ccc2cc(-c3cc(Nc4ccc(NS(=O)(=O)c5ccc(F)cc5F)cc4)ncn3)ccc21` [Example 168, N-(4-{6-[1-(3-Diethylamino-propyl)-1H-indol-5-yl]-pyrimidin-4-ylamino}-phenyl)-2,4-difluoro-benzenesulfonamide formic acid salt], the IC50 on PKCδ lay within 2 to 18 µM. Consider `CCN(CC)CCCn1cc(-c2cc(Nc3ccc(NS(=O)(=O)c4ccc(F)cc4F)cc3)ncn2)c2ccccc21` [Example 175, N-(4-{6-[1-(3-Diethylamino-propyl)-1H-indol-3-yl]-pyrimidin-4-ylamino}-phenyl)-2,4-difluoro-benzenesulfonamide formic acid salt], for which, at PKCζ, the IC50 was 15 to 25 µM.
